Laboratory results published in PubChem BioAssay AID330 (DTP/NCI, 2004).
Several values for one entry are separate records, joined by “and”; a condition that tells them apart may be missing. Identical values can stand only once. Toxic doses and inconclusive results are not listed.

Test system: P388 leukemia ip, CD2F1 mice, survival T/C
Assay: NCI In Vivo Anticancer Drug Screen. Data for tumor model P388 Leukemia (intraperitoneal) in CD2F1 (CDF1) mice
Conditions: endpoint: median survival time, higher = longer survival
Method in brief: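 Mice carrying the transplanted tumor received test compound or vehicle. Survival was recorded in each group, and the value is the treated-group measurement divided by that of the vehicle-treated control group.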

[1] = dose: 12.5 mg/kg/injection, schedule: Q01DX005 (ip), vehicle: saline with Tween-80
[2] = dose: 50.0 mg/kg/injection, schedule: Q01DX005 (ip), vehicle: saline with Tween-80
[3] = dose: 60.0 mg/kg/injection, schedule: Q01DX005 (ip), vehicle: saline with Tween-80
[4] = dose: 120.0 mg/kg/injection, schedule: Q01DX005 (ip), vehicle: saline with Tween-80
[5] = dose: 240.0 mg/kg/injection, schedule: Q01DX005 (ip), vehicle: saline with Tween-80
[6] = dose: 50.0 mg/kg/injection, schedule: Q01DX009 (ip), vehicle: saline
[7] = dose: 100.0 mg/kg/injection, schedule: Q01DX009 (ip), vehicle: saline
[8] = dose: 200.0 mg/kg/injection, schedule: Q01DX009 (ip), vehicle: saline

With `COc1ccc2c(c1OC)C(C(C)=O)N1CCc3cc4c(cc3C1=C2)OCO4` (stereo not given) as the compound, how does the T/C (dose: 0.63 mg/kg/injection, schedule: Q01DX009 (ip), vehicle: distilled water + Tween-80) read?
The T/C was 106 % of control.

And the T/C (dose: 1.25 mg/kg/injection, schedule: Q01DX009 (ip), vehicle: distilled water + Tween-80)?
Its T/C is 101 % of control.

What about the T/C (dose: 2.5 mg/kg/injection, schedule: Q01DX009 (ip), vehicle: distilled water + Tween-80) of the same compound?
Its T/C is 99 % of control.

And the T/C (dose: 5.0 mg/kg/injection, schedule: Q01DX009 (ip), vehicle: distilled water + Tween-80)?
The T/C was 96 % of control.

And the T/C (dose: 10.0 mg/kg/injection, schedule: Q01DX009 (ip), vehicle: distilled water + Tween-80)?
Its T/C is 101 % of control.

And the T/C (dose: 20.0 mg/kg/injection, schedule: Q01DX009 (ip), vehicle: distilled water + Tween-80)?
Its T/C is 101 % of control.

With `CC(C)(C)C(=O)CC(=O)C(C)(C)C.[Cu]` as the compound, how does the T/C (dose: 100.0 mg/kg/injection, schedule: Q04DX003 (ip), vehicle: saline with Tween-80) read?
The T/C was 94 % of control.

What about the T/C (dose: 200.0 mg/kg/injection, schedule: Q04DX003 (ip), vehicle: saline with Tween-80) of the same compound?
Its T/C is 101 % of control.

Which results are given for `COc1cc2c(cc1CN(C)C)[nH]c1c3ccc(Cl)cc3ncc21`?
T/C [1]: 104 % of control; T/C (dose: 25.0 mg/kg/injection, schedule: Q01DX005 (ip), vehicle: saline with Tween-80): 103 % of control; T/C [2]: 109 % of control and 112 % of control

What does the source list for `C/C(=N\NC(=S)N1CCCC1)c1ccc[nH]1`?
T/C (dose: 50.0 mg/kg/injection, schedule: Q01DX005 (ip), vehicle: Klucel (hydroxypropylcellulose) (HPC)): 102 % of control; T/C (dose: 100.0 mg/kg/injection, schedule: Q01DX005 (ip), vehicle: Klucel (hydroxypropylcellulose) (HPC)): 114 % of control; T/C (dose: 200.0 mg/kg/injection, schedule: Q01DX005 (ip), vehicle: Klucel (hydroxypropylcellulose) (HPC)): 89 % of control

What does the source list for `CC(C)CC1NC(CC(C)C)N2C(CC(C)C)N12` (stereo not given)?
T/C (dose: 100.0 mg/kg/injection, schedule: Q01DX001 (ip), vehicle: Klucel (hydroxypropylcellulose) (HPC)): 103 % of control; T/C (dose: 200.0 mg/kg/injection, schedule: Q01DX001 (ip), vehicle: Klucel (hydroxypropylcellulose) (HPC)): 103 % of control; T/C (dose: 400.0 mg/kg/injection, schedule: Q01DX001 (ip), vehicle: Klucel (hydroxypropylcellulose) (HPC)): 99 % of control

Which T/C [3] does the source give for `NC(=O)c1coc2c1C(=O)c1ccc3ccccc3c1CC2` here?
Its T/C is 102 % of control.

And the T/C [4]?
Its T/C is 102 % of control.

What about the T/C [5] of the same compound?
Its T/C is 108 % of control.

How did the T/C (dose: 50.0 mg/kg/injection, schedule: Q01DX009 (ip), vehicle: Klucel (hydroxypropylcellulose) (HPC)) turn out when `CCOC(=O)NN(C(=O)OCC)C(C(=O)C1CCCCC1)N(NC(=O)OCC)C(=O)OCC` was run?
The T/C was 102 % of control.

And the T/C (dose: 100.0 mg/kg/injection, schedule: Q01DX009 (ip), vehicle: Klucel (hydroxypropylcellulose) (HPC))?
Its T/C is 100 % of control.

And the T/C (dose: 200.0 mg/kg/injection, schedule: Q01DX009 (ip), vehicle: Klucel (hydroxypropylcellulose) (HPC))?
The T/C was 96 % of control.

How did the T/C (dose: 15.0 mg/kg/injection, schedule: Q01DX005 (ip), vehicle: saline with Tween-80) turn out when `COc1ccc(C(c2c(O)c3ccccc3oc2=O)c2c(O)c3ccccc3oc2=O)cc1` was run?
The T/C was 98 % of control.

What about the T/C (dose: 30.0 mg/kg/injection, schedule: Q01DX005 (ip), vehicle: saline with Tween-80) of the same compound?
Its T/C is 98 % of control.

And the T/C [3]?
The T/C was 100 % of control and 98 % of control.

With `OC(CNc1c2ccccc2nc2ccccc12)COc1c2ccccc2nc2ccccc12` (stereo not given) as the compound, how does the T/C [3] read?
The T/C was 95 % of control.

And the T/C [4]?
Its T/C is 92 % of control.

What about the T/C [5] of the same compound?
The T/C was 100 % of control.

How did the T/C (dose: 50.0 mg/kg/injection, schedule: Q04DX003 (ip), vehicle: distilled water + Tween-80) turn out when `COc1cc2c[n+]3ccccc3c(N)c2cc1OC` was run?
The T/C was 110 % of control.

What about the T/C (dose: 100.0 mg/kg/injection, schedule: Q04DX003 (ip), vehicle: distilled water + Tween-80) of the same compound?
Its T/C is 106 % of control.

And the T/C (dose: 200.0 mg/kg/injection, schedule: Q04DX003 (ip), vehicle: distilled water + Tween-80)?
The T/C was 97 % of control.

How did the T/C (dose: 60.0 mg/kg/injection, schedule: Q01DX005 (ip), vehicle: Klucel (hydroxypropylcellulose) (HPC)) turn out when `c1ccc(C23CCCCC2O3)cc1` (stereo not given) was run?
The T/C was 102 % of control.

What about the T/C (dose: 120.0 mg/kg/injection, schedule: Q01DX005 (ip), vehicle: Klucel (hydroxypropylcellulose) (HPC)) of the same compound?
The T/C was 107 % of control.

And the T/C (dose: 240.0 mg/kg/injection, schedule: Q01DX005 (ip), vehicle: Klucel (hydroxypropylcellulose) (HPC))?
The T/C was 111 % of control.

Which T/C [6] does the source give for `CCCCCN(C)C12CN3CN(CN(C3)C1)C2` here?
Its T/C is 103 % of control.

And the T/C [7]?
Its T/C is 103 % of control.

And the T/C [8]?
The T/C was 99 % of control.

How did the T/C (dose: 50.0 mg/kg/injection, schedule: Q01DX009 (ip), vehicle: distilled water + alcohol) turn out when `O=C1NC(=O)C2(N1)C(=O)c1cccc3cccc2c13` (stereo not given) was run?
The T/C was 100 % of control.

What about the T/C (dose: 100.0 mg/kg/injection, schedule: Q01DX009 (ip), vehicle: distilled water + alcohol) of the same compound?
The T/C was 102 % of control.

What about the T/C (dose: 200.0 mg/kg/injection, schedule: Q01DX009 (ip), vehicle: distilled water + alcohol) of the same compound?
The T/C was 95 % of control.

With `Cc1ncc(C[n+]2csc(CCO)c2C)c(N)n1` as the compound, how does the T/C [6] read?
Its T/C is 108 % of control.

And the T/C [7]?
Its T/C is 105 % of control.

And the T/C [8]?
Its T/C is 97 % of control.

Which T/C [7] does the source give for `COc1cc[n+]([O-])cc1` here?
Its T/C is 95 % of control.

And the T/C [8]?
The T/C was 90 % of control.

And the T/C (dose: 400.0 mg/kg/injection, schedule: Q01DX009 (ip), vehicle: saline)?
Its T/C is 95 % of control.

What does the source list for `COc1ccc(C2(O)CC3CCC(C2)N3C)cc1` (stereo not given)?
T/C [2]: 93 % of control; T/C (dose: 100.0 mg/kg/injection, schedule: Q01DX005 (ip), vehicle: saline with Tween-80): 100 % of control; T/C (dose: 200.0 mg/kg/injection, schedule: Q01DX005 (ip), vehicle: saline with Tween-80): 97 % of control

What does the source list for `O=C1N[C@H]2[C@H](O)[C@H](O)[C@@H](O)[C@H](O)[C@@H]2c2cc3c(c(O)c21)OCO3`?
T/C (dose: 0.18 mg/kg/injection, schedule: Q01DX009 (ip), vehicle: saline + Tween-80 + alcohol): 113 % of control; T/C (dose: 0.37 mg/kg/injection, schedule: Q01DX009 (ip), vehicle: saline + Tween-80 + alcohol): 122 % of control; T/C (dose: 0.38 mg/kg/injection, schedule: Q01DX005 (iv), vehicle: other): 105 % of control; T/C (dose: 0.38 mg/kg/injection, schedule: Q01DX009 (ip), vehicle: saline + alcohol): 119 % of control; T/C (dose: 0.75 mg/kg/injection, schedule: Q01DX005 (ip), vehicle: other): 122 % of control; T/C (dose: 0.75 mg/kg/injection, schedule: Q01DX005 (ip), vehicle: saline + alcohol): 116 % of control; T/C (dose: 0.75 mg/kg/injection, schedule: Q01DX005 (iv), vehicle: other): 105 % of control; T/C (dose: 1.5 mg/kg/injection, schedule: Q01DX005 (iv), vehicle: other): 106 % of control; T/C (dose: 3.0 mg/kg/injection, schedule: Q01DX005 (iv), vehicle: other): 108 % of control; T/C (dose: 3.0 mg/kg/injection, schedule: Q01DX009 (ip), vehicle: saline + Tween-80 + alcohol): 160 % of control; T/C (dose: 3.0 mg/kg/injection, schedule: Q01DX009 (ip), vehicle: saline + alcohol): 161 % of control; T/C (dose: 3.12 mg/kg/injection, schedule: Q01DX009 (ip), vehicle: saline + alcohol): 151 % of control; T/C (dose: 6.0 mg/kg/injection, schedule: Q01DX005 (ip), vehicle: other): 152 % of control; T/C (dose: 6.0 mg/kg/injection, schedule: Q01DX005 (iv), vehicle: other): 121 % of control; T/C (dose: 6.0 mg/kg/injection, schedule: Q01DX009 (ip), vehicle: saline + Tween-80 + alcohol): 162 % of control; T/C (dose: 6.0 mg/kg/injection, schedule: Q01DX009 (ip), vehicle: saline + alcohol): 165 % of control; T/C (dose: 6.25 mg/kg/injection, schedule: Q01DX005 (ip), vehicle: saline + alcohol): 105 % of control; T/C (dose: 6.25 mg/kg/injection, schedule: Q01DX009 (ip), vehicle: saline + alcohol): 155 % of control and 173 % of control; T/C (dose: 12.0 mg/kg/injection, schedule: Q01DX005 (ip), vehicle: other): 155 % of control; T/C (dose: 12.0 mg/kg/injection, schedule: Q01DX005 (ip), vehicle: saline + alcohol): 156 % of control; T/C (dose: 12.5 mg/kg/injection, schedule: Q01DX009 (ip), vehicle: saline + alcohol): 203 % of control

Which results are given for `O=C1OCCC1C(=O)C(O)(C(F)(F)F)C(F)(F)F` (stereo not given)?
T/C (dose: 50.0 mg/kg/injection, schedule: Q01DX001 (ip), vehicle: other): 100 % of control; T/C (dose: 100.0 mg/kg/injection, schedule: Q01DX001 (ip), vehicle: other): 95 % of control; T/C (dose: 200.0 mg/kg/injection, schedule: Q01DX001 (ip), vehicle: other): 91 % of control

Which T/C [6] does the source give for `CC1(C)CCCC2C1=NOC2O` (stereo not given) here?
The T/C was 100 % of control.

And the T/C [7]?
Its T/C is 96 % of control.

What about the T/C [8] of the same compound?
Its T/C is 100 % of control.

For `CCC[CH2][Sn]1([CH2]CCC)[O]C(=O)CC[S]1`, which T/C (dose: 3.13 mg/kg/injection, schedule: Q01DX005 (ip), vehicle: saline with Tween-80) is on record?
Its T/C is 121 % of control.

What about the T/C (dose: 6.25 mg/kg/injection, schedule: Q01DX005 (ip), vehicle: saline with Tween-80) of the same compound?
Its T/C is 115 % of control and 120 % of control.

And the T/C [1]?
Its T/C is 121 % of control.
